According to US11801228B2, “Modified guanidine-containing polymers for biologic delivery” (THE FLORIDA INTERNATIONAL UNIVERSITY BOARD OF TRUSTEES, priority 2022, dated 2023):

System: HeLa cells
Experiment: Functional protein delivery (MTT with PN/enzyme complexes)
Type: cell-based
Conditions: no carrier
Protocol: Final concentrations of 40, 20, 10, and 5 μM were added into the complete media by dilution of the polymer stock solutions. After addition of the samples, cells were incubated for 18 h prior to treatment with 10 μL of methylthiazole tetrazolium (MTT) (5 mg/mL in PBS) and incubated for 4 h at 37° C. After incubation, 200 μL of medium was gently removed and 100 μL of biological grade DMSO was added to solubilize the purple formazan crystals. Absorbance was measured by microwell plate reader. Cell viability was determined as a function of absorbance of each sample relative to control wells. All measurements represent the average of three independent measurements+/−standard deviation.
MTT assay was performed with PN/enzyme complexes are described previously. In short, serial dilutions of saporin or RNase were prepared and complexes with various PNs. For serum-containing media, complexes were added to HeLa cells and incubated overnight prior to MTT treatment. For serum-free experiments, complexes were added in DMEM for 4 h and the media was replaced with complete media overnight prior to MTT treatment.

## Saporin
  toxicity of free enzyme on HeLa cells: no toxicity

B1: RNase A: 13.7 kDa enzyme capable of degrading RNA chains (protein, UniProt P61823 27-150, looked up)
Ribonuclease pancreatic: KETAAAKFERQHMDSSTSAASSSNYCNQMMKSRNLTKDRCKPVNTFVHESLADVQAVCSQKNVACKNGQTNCYQSYSTMSITDCRETGSSKYPNCAYKTTQANKHIIVACEGNPYVPVHFDASV
  toxicity of free enzyme on HeLa cells: no toxicity
